A short description of series [1]: n-octanol-phosphate buffer distribution coefficient, log D of the compound at pH 5.5 after 90 mins by shake-flask method. The format is physicochemical.
A short description of series [2]: n-octanol-phosphate buffer distribution coefficient, log D of the compound at pH 2 after 90 mins by shake-flask method. Type of series: physicochemical.
Series [3] is described as follows: Effective permeability of the compound at pH 2 at 200 uM after 4 hrs by PAMPA-GI assay. The format is physicochemical. The conditions noted are these: read-out: Peff. On the technique in general: In PAMPA a lipid-coated filter parts donor from acceptor wells.
Series [4] is described as follows: Effective permeability of the compound at pH 5.5 at 200 uM after 4 hrs by PAMPA-GI assay. The format is physicochemical. Conditions: read-out: Peff.
The nature of series [5]: Effective permeability of the compound at pH 7.4 at 200 uM after 4 hrs by PAMPA-GI assay. Type of series: physicochemical. The conditions noted are these: read-out: Peff.
A short description of series [6]: Effective permeability of the compound at pH 7.4 at 200 uM after 4 hrs by PAMPA-BBB assay. The format is physicochemical. The conditions noted are these: read-out: Peff.
Series [7] can be described thus: physchem. Conditions: phosphate buffer, pH 7.4.
Series [8] in a line: physchem. Conditions: phosphate buffer, pH 5.5.
Series [9] in a line: physchem. The conditions noted are these: phosphate buffer, pH 2.
The species named for a further series is Homo sapiens. The series is described as follows: Selectivity index, ratio of IC50 for recombinant human MAOA to IC50 for recombinant human MAOB.
The nature of series [10]: n-octanol-phosphate buffer distribution coefficient, log D of the compound at pH 7.4 after 90 mins by shake-flask method. The format is physicochemical.
For series [11] the following is noted: buffer, pH 7.4, […], 500 µM.
The conditions of series [12]: buffer, pH 5.5, […], 500 µM.
The conditions of series [13]: buffer, pH 2, […], 500 µM.
The target of series [14] is T1, Amine oxidase [flavin-containing] B (Homo sapiens, UniProt P27338).
T1 sequence (P27338 whole entry): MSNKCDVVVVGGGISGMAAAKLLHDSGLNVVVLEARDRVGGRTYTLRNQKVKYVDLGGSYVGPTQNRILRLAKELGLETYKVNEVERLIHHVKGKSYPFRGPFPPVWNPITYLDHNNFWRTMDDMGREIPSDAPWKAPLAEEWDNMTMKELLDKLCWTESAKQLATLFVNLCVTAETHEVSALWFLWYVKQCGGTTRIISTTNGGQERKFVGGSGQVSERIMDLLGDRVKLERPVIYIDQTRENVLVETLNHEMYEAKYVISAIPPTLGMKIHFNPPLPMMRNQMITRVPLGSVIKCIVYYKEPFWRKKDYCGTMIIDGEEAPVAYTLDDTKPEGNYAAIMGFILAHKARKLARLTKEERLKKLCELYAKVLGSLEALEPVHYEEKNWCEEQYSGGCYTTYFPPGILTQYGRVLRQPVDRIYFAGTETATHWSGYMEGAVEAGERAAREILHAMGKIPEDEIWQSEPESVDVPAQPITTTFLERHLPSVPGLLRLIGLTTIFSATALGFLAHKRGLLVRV
The series is described as follows: biochemical.
Description: Inhibition of recombinant human MAOB expressed in baculovirus-infected BTI insect cells using p-tyramine as substrate measured for 45 mins in presence of MAOA inhibitor clorgyline by continuous fluorescence-based method

Series [15] concerns the target T2, Amine oxidase [flavin-containing] B (Rattus norvegicus, UniProt P19643).
T2 sequence (P19643 whole entry): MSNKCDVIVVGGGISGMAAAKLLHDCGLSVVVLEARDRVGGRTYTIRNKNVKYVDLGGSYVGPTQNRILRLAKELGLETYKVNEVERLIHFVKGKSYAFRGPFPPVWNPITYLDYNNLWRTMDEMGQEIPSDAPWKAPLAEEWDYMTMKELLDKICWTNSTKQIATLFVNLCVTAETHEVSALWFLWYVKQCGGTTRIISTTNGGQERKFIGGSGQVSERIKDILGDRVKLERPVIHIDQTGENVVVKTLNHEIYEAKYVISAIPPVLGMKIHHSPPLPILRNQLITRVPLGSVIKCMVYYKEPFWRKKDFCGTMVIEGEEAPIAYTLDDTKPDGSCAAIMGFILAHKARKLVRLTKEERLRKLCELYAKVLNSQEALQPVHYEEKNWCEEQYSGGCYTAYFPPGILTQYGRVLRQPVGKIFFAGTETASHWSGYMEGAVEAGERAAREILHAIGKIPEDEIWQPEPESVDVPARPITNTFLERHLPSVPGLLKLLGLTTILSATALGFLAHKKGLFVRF
The series is described as follows: Inhibition of MAOB in Sprague-Dawley rat liver mitochondria using p-tyramine as substrate measured for 45 mins in presence of MAOA inhibitor clorgyline by continuous fluorescence-based method.

Series [16] has as its target T3, Amine oxidase [flavin-containing] A (Rattus norvegicus, UniProt P21396).
T3 sequence (P21396 whole entry): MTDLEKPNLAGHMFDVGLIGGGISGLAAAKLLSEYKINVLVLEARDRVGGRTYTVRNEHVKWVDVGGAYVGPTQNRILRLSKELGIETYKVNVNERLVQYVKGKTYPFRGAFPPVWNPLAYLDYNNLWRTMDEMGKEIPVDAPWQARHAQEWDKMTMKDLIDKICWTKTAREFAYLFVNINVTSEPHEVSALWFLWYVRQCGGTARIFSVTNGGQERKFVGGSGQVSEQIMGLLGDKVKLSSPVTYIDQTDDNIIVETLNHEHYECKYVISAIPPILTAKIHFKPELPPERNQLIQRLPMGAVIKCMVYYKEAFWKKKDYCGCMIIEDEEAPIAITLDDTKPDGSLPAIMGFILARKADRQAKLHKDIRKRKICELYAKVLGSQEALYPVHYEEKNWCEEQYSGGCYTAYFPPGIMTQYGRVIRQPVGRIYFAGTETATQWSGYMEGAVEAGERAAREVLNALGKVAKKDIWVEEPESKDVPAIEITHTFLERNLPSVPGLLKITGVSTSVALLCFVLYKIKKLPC

In series [17] the target is T4, Amine oxidase [flavin-containing] A (Homo sapiens, UniProt P21397).
T4 sequence (P21397 whole entry): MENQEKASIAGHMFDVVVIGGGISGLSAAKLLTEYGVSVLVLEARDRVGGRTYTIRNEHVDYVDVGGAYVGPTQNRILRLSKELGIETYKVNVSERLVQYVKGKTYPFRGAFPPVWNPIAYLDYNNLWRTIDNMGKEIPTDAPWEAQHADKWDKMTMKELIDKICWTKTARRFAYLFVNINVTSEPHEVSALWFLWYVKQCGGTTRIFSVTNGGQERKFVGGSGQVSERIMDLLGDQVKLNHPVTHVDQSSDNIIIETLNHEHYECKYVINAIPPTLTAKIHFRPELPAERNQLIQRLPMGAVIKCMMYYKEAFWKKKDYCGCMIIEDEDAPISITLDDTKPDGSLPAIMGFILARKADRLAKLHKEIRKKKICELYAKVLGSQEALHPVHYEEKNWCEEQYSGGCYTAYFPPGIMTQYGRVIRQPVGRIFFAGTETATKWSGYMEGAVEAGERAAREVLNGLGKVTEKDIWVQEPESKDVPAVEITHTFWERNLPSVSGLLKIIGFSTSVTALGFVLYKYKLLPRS
Nature of the series: biochemical.

pIC50, pKi: −log10 of the molar value. Converted amounts (≈) assume the structure as drawn. Where only a bound is given, the exact number is not on record here.

As a reminder, the logD is lipophilicity at a set pH, counting ionised and neutral species. For orientation: solubility (kinetic) means solubility judged after dilution from a stock solution rather than from solid. By pKi is commonly meant the Ki on a negative log10 scale, so that one unit is a factor of ten. A high value points to a low Ki. For orientation: pIC50 means −log10 of the IC50, conventionally taken in molar units.

With `Cn1ncc2cc(C(=O)Nc3ccc(F)c(Cl)c3)ccc21`, the pH-dependent lipophilicity (logD) at […] worked out at 2.52 in series [1] and 2.39 in [2]. Also, the Papp at 4 h, 200 µM worked out at 27.2 ×10⁻⁶ cm/s in series [3], 29.5 ×10⁻⁶ cm/s in [4], 31.7 ×10⁻⁶ cm/s in series [5] and 37.6 ×10⁻⁶ cm/s in [6]. Also, the kinetic solubility at […], 500 µM in the series “physchem [7]” was found to be 77.4 µM (≈ 23.5 µg/mL); in the series “physchem [8]”, 69.1 µM (≈ 21 µg/mL); in “physchem [9]” it was 57.5 µM (≈ 17.5 µg/mL).
As to `O=C(Nc1ccccc1)c1ccc2[nH]ncc2c1`, the Ratio IC50 in the series listed under Homo sapiens was over 86.
For the molecule `Cn1cc2cc(C(=O)Nc3ccc(Cl)c(Cl)c3)ccc2n1`, the logD at […] came to 2.97 in [10], 2.54 in series [1] and 2.49 in series [2]. Besides, the Papp at 4 h, 200 µM came to 14.5 ×10⁻⁶ cm/s in series [3], 16.1 ×10⁻⁶ cm/s in series [4], 17.6 ×10⁻⁶ cm/s in series [5] and 29 ×10⁻⁶ cm/s in series [6]. Also, the “log(Kinetic_solubility)” value in series [11] is given as -4.25; in series [12], -4.3; in series [13], -4.24. Also, the solubility (kinetic) at […], 500 µM in the series “physchem [7]” turned out to be 55.9 µM (≈ 17.9 µg/mL); in “physchem [8]”, 50 µM (≈ 16 µg/mL); in the series “physchem [9]”, 57.5 µM (≈ 18.4 µg/mL). The same molecule gave a pKi in series [14] of 9.19.
Consider `COCCn1ncc2cc(C(=O)Nc3ccc(Cl)c(Cl)c3)ccc21`, for which the pIC50 in series [15] is 8.42; in series [16], under 5.00; in series [17], 5.54; in series [14] it was 8.97. Further, the Ratio IC50 in the series filed under Homo sapiens was over 2660. The pKi in series [14] is 9.32.
As to `O=C(Nc1ccc(F)c(F)c1)c1ccc2[nH]ncc2c1`, the Ratio IC50 in the series listed under Homo sapiens turned out to be 6290. Moreover, the log distribution coefficient (logD) at […] in series [1] came to 1.94; in series [2], 2.17. Further, the Papp at 4 h, 200 µM in series [3] was at most 0.59 ×10⁻⁶ cm/s; in [4], at most 0.59 ×10⁻⁶ cm/s; in [5], at most 0.59 ×10⁻⁶ cm/s; in series [6] it was 8.15 ×10⁻⁶ cm/s. The “log(Kinetic_solubility)” value is recorded as -4.22 in series [11], -4.2 in series [12] and -4.21 in [13]. The values for the kinetic solubility at […], 500 µM in “physchem [7]”, in the series “physchem [8]” and in “physchem [9]” were 60.7 µM (≈ 16.6 µg/mL), 62.7 µM (≈ 17.1 µg/mL) and 61.1 µM (≈ 16.7 µg/mL), respectively. Further, in [17], the pIC50 was 8.18.
In the case of `COCCc1ccc(OCC(O)CNC(C)C)cc1` (stereo unspecified) [METOPROLOL], the logD at […] was -0.37 in series [10], -0.76 in [1] and -2.46 in series [2].
In the case of `Cn1cc2cc(C(=O)Nc3ccc(F)c(Cl)c3)ccc2n1`, the Ratio IC50 in the series filed under Homo sapiens was 70. In addition, the values for the logD at […] in series [10], in series [1] and in series [2] were 2.64, 2.55 and 3.24, respectively. The Papp at 4 h, 200 µM is 8.16 ×10⁻⁶ cm/s in [3], 9.11 ×10⁻⁶ cm/s in series [4], 9.35 ×10⁻⁶ cm/s in [5] and 17.2 ×10⁻⁶ cm/s in series [6]. In addition, the “log(Kinetic_solubility)” value in series [11] is on record as -3.36; in series [12], -3.38; in series [13], -3.36. Besides, the kinetic solubility at […], 500 µM stood at 441 µM (≈ 134 µg/mL) in the series “physchem [7]”, 421 µM (≈ 128 µg/mL) in “physchem [8]” and 439 µM (≈ 133 µg/mL) in “physchem [9]”. This molecule had a pIC50 in series [17] of 8.09. The molecule also gave a pKi in [14] of 8.45.
Take `Cn1cc2cc(C(=O)Nc3ccc(F)c(F)c3)ccc2n1`: the Ratio IC50 in the series listed under Homo sapiens worked out at 20.
As for `O=C(Nc1ccc(Cl)c(Cl)c1)c1ccc2[nH]ncc2c1`, in the series listed under Homo sapiens, the Ratio IC50 amounted to 17100.
With `Cn1ncc2cc(C(=O)Nc3ccc(Cl)c(Cl)c3)ccc21`, the Papp at 4 h, 200 µM in series [3] is 18.3 ×10⁻⁶ cm/s; in series [4], 16.8 ×10⁻⁶ cm/s; in [5] it was 18.6 ×10⁻⁶ cm/s; in series [6], 22.3 ×10⁻⁶ cm/s. The “log(Kinetic_solubility)” value in series [11] is reported as -5.45; in [12], -5.52; in series [13], -5.39. Also, the figures for the solubility (kinetic) at […], 500 µM in “physchem [7]”, in “physchem [8]” and in “physchem [9]” were 3.51 µM (≈ 1.12 µg/mL), 3.04 µM (≈ 0.973 µg/mL) and 4.07 µM (≈ 1.3 µg/mL), respectively.
`Cn1ncc2cc(C(=O)Nc3ccc(F)c(F)c3)ccc21`: in the series filed under Homo sapiens, the Ratio IC50 was 6580.

For the origin of these results see ChEMBL document CHEMBL3994625, “Crystal structures, binding interactions, and ADME evaluation of brain penetrant N-substituted indazole-5-carboxamides as subnanomolar, selective monoamine oxidase B and dual MAO-A/B inhibitors” (Eur J Med Chem, 2017).
